The test system of one experiment is NF-κB mediated transcription. Description: NF-κB driven β-lactamase reporter assay in ECV-304 NF-κB.βlaZ cells (AURORA CCF2 fluorescence). To be noted: 10 μM compound; ECV-304 NF-κB.βlaZ cells stimulated with 10 ng/mL TNF-α or 100 pg/mL IL-1β, 6 hours at 37° C.; inhibition of maximum blue/green ratio. The format is cell-based, human. Put shortly: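 ECV-304 cells (clone 1E8) stably carrying a β-lactamase reporter driven by 5 HIV-1 NF-κB sites, plated in M-199 with 2% FBS, compound at 10 μM final. CCF2 read at 395 nm excitation, blue 460 nm/green 530 nm emission ratio; IC50 from dose-response curve.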
For orientation: In a reporter assay the amount or activity of a reporter protein is the signal.
Consider `CCCCCCC(C)OS(=O)(=O)NC(=O)Nc1c(C(C)C)cccc1C(C)C` (stereo not drawn) [Example 94, Sulfamic acid, [[[2,6-bis(1-methylethyl)phenyl]amino]carbonyl]-, 1-methylheptyl ester,], for which the “Percent Inhibition at 10 μM” value is given as below 10%.

Take `CC1(C)OCC(NC(=O)NS(=O)(=O)NCC23CC4CC(CC(C4)C2)C3)C(c2ccccc2)O1` (stereo not drawn) [Example 104, Urea, N-(2,2-dimethyl-4-phenyl-1,3-dioxan-5-yl)-N′-[[(tricyclo[3.3.1.1^3,7]dec-1-ylmethyl)amino]sulfonyl]-, (4S-#cis/)-]: the “Percent Inhibition at 10 μM” value is on record as below 10%.

For the molecule `CC(C)c1cccc(C(C)C)c1OS(=O)(=O)NC(=O)OCCOC(=O)NS(=O)(=O)Oc1c(C(C)C)cccc1C(C)C` [Example 111, Carbamic acid, [[2,6-bis(1-methylethyl)phenoxy]sulfonyl]-, 1,2-ethanediyl ester], the “Percent Inhibition at 10 μM” value is listed as below 10%.

On to `CC(C)c1cccc(C(C)C)c1OS(=O)(=O)NC(=O)OCC(COC(=O)NS(=O)(=O)Oc1c(C(C)C)cccc1C(C)C)OC(=O)NS(=O)(=O)Oc1c(C(C)C)cccc1C(C)C` [Example 112, Carbamic acid, [[2,6-bis(1-methylethyl)phenoxy]sulfonyl]-, 1,2,3-propanetriyl ester], for which the “Percent Inhibition at 10 μM” value is below 10%.

Still in this experiment, the particulars now being: Homo sapiens, ECV-304, 6 h, 10 μM compound; ECV-304 NF-κB.βlaZ cells stimulated with 10 ng/mL TNF-α or 100 pg/mL IL-1β, 6 hours at 37° C.; inhibition of maximum blue/green ratio; read-out: Percent Inhibition at 10 μM.
For orientation: inhibition means the share of the control response that was lost under treatment. For `CCCCCCCCCCCCCCCCCCN(C)S(=O)(=O)NC(=O)Nc1c(C(C)C)cccc1C(C)C` [Example 80, Urea, N-[2,6-bis(1-methylethyl)phenyl]-N′-[(methyloctadecylamino)-sulfonyl]-], the inhibition at 10 µM was below 10%.

In the case of `C=CCN(CC=C)S(=O)(=O)NC(=O)Nc1c(C(C)C)cccc1C(C)C` [Example 81, Urea, N-[2,6-bis(1-methylethyl)phenyl]-N′-[(di-2-propenylamino)-sulfonyl]-], the inhibition at 10 µM was below 10%.

On to `CC(C)c1cccc(C(C)C)c1NC(=O)NS(=O)(=O)N(C(C)C)C(C)(C)C` [Example 82, Urea, N-[2,6-bis(1-methylethyl)phenyl]-N′-[[(1,1-dimethylethyl)(1-methylethyl)-amino]sulfonyl]-], for which the inhibition at 10 µM was below 10%.

For `CCC(C)N(C(C)CC)S(=O)(=O)NC(=O)Nc1c(C(C)C)cccc1C(C)C` (stereo not drawn) [Example 83, Urea, N-[2,6-bis(1-methylethyl)phenyl]-N′-[[bis(1-methylpropyl)-amino]-sulfonyl]-], the inhibition at 10 µM was 10.6%.

For the molecule `CCCCCCCCCCCCCCN(C)S(=O)(=O)NC(=O)Nc1c(C(C)C)cccc1C(C)C` [Example 84, Urea, N-[2,6-bis(1-methylethyl)phenyl]-N′-[(methyltetradecylamino)-sulfonyl]-], the inhibition at 10 µM worked out at 44.8%.

Take `CCCCCCCCCCOS(=O)(=O)NC(=O)Nc1c(C(C)C)cccc1C(C)C` [Example 90, Sulfamic acid, [[[2,6-bis(1-methylethyl)phenyl]amino]carbonyl]-, decyl ester]: the inhibition at 10 µM amounted to 13.6%.

For the molecule `CCCCCCCCCCCCOS(=O)(=O)NC(=O)Sc1c(C(C)C)cccc1C(C)C` [Example 93, Carbamothioic acid, [(dodecyloxy)sulfonyl]-, S-[2,6-bis(1-methylethyl)-phenyl] ester], the inhibition at 10 µM was found to be 14.5%.

Take `CC(C)c1cccc(C(C)C)c1NC(=O)NS(=O)(=O)Oc1c(C(C)C)cccc1C(C)C` [Example 95, Sulfamic acid, [[[2,6-bis(1-methylethyl)phenyl]amino]carbonyl]-, 2,6-bis(1-methylethyl)phenyl ester]: the inhibition at 10 µM turned out to be 33.1%.

Regarding `CCCCN(CCCC)S(=O)(=O)N(C)C(=O)Nc1c(C(C)C)cccc1C(C)C` [Example 99, Urea, N′-[2,6-bis(1-methylethyl)phenyl]-N-[(dibutylamino)sulfonyl]-N-methyl-], the inhibition at 10 µM was below 10%.

On to `CCCCCCCCCC(=O)NS(=O)(=O)Oc1c(C(C)C)cccc1C(C)C` [Example 106, Sulfamic acid, (1-oxodecyl)-, 2,6-bis(1-methylethyl)phenyl ester], for which the inhibition at 10 µM turned out to be 72.3%.

As for `CCCCCCC(C)OC(=O)NS(=O)(=O)Oc1c(C(C)C)cccc1C(C)C` (stereo not drawn) [Example 109, Carbamic acid, [[2,6-bis(1-methylethyl)phenoxy]sulfonyl]-, 1-methylheptyl ester], the inhibition at 10 µM was found to be 51.4%.

The same experiment, now with this note: Homo sapiens; 10 μM compound; ECV-304 NF-κB.βlaZ cells stimulated with 10 ng/mL TNF-α or 100 pg/mL IL-1β, 6 hours at 37° C.; inhibition of maximum blue/green ratio; read-out: Percent Inhibition at 10 μM.
Regarding `CCCCCCCCN(CCCCCCCC)S(=O)(=O)NC(=O)Oc1c(C(C)C)cccc1C(C)C` [Example 85, Carbamic acid, [(dioctylamino)sulfonyl]-, 2,6-bis(1-methylethyl)phenyl ester], the inhibition at 10 µM came out at 45%.

Turning to `CC(C)c1cccc(C(C)C)c1OC(=O)NS(=O)(=O)N(C(C)C)C1CCCCC1` [Example 86, Carbamic acid, [[cyclohexyl(1-methylethyl)amino]sulfonyl]-, 2,6-bis(1-methylethyl)phenyl ester], the inhibition at 10 µM turned out to be 16%.

For `CCCCCCCCN(C)S(=O)(=O)NC(=O)Oc1c(C(C)C)cccc1C(C)C` [Example 87, Carbamic acid, [(methyloctylamino)sulfonyl]-, 2,6-bis(1-methylethyl)-phenyl ester], the inhibition at 10 µM is below 10%.

Consider `CCCCCCN(CCCCCC)S(=O)(=O)NC(=O)Oc1c(C(C)C)cccc1C(C)C` [Example 88, Carbamic acid, [(dihexylamino)sulfonyl]-, 2,6-bis(1-methylethyl)phenyl ester], for which the inhibition at 10 µM is below 10%.

`CCCCCN(CCCCC)S(=O)(=O)NC(=O)Oc1c(C(C)C)cccc1C(C)C` [Example 89, Carbamic acid, [(dipentylamino)sulfonyl]-, 2,6-bis(1-methylethyl)phenyl ester]: the inhibition at 10 µM was found to be 31.9%.

For `CC(C)c1cccc(C(C)C)c1OS(=O)(=O)NC(=O)Oc1c(C(C)(C)C)cccc1C(C)(C)C` [Example 91, Carbamic acid, [[2,6-bis(1-methylethyl)phenoxy]sulfonyl]-, 2,6-bis(1,1-dimethylethyl)phenyl ester], the inhibition at 10 µM was determined as 39.7%.

For the molecule `CCCCCCCCCCCCOS(=O)(=O)NC(=O)Oc1c(-c2ccccc2)cccc1-c1ccccc1` [Example 92, Carbamic acid, [(dodecyloxy)sulfonyl]-, [1,1′:3′,1″-terphenyl]-2′-yl ester], the inhibition at 10 µM is below 10%.

Turning to `CC(C)c1cccc(C(C)C)c1OC(=O)NS(=O)(=O)Oc1ccccc1` [Example 97, Carbamic acid, (phenoxysulfonyl)-, 2,6-bis(1-methylethyl)phenyl ester], the inhibition at 10 µM was below 10%.

As to `Cc1cccc(C)c1OS(=O)(=O)NC(=O)Oc1c(C(C)C)cccc1C(C)C` [Example 98, Carbamic acid, [(2,6-dimethylphenoxy)sulfonyl]-, 2,6-bis(1-methylethyl)-phenyl ester], the inhibition at 10 µM is below 10%.

Regarding `CC(C)(C)c1cccc(C(C)(C)C)c1OC(=O)NS(=O)(=O)Oc1c(C(C)(C)C)cccc1C(C)(C)C` [Example 100, Carbamic acid, [[2,6-bis(1,1-dimethylethyl)phenoxy]sulfonyl]-, 2,6-bis(1,1-dimethylethyl)phenyl ester], the inhibition at 10 µM was 50%.

On to `CC(C)c1cccc(C(C)C)c1OC(=O)NS(=O)(=O)Oc1c(C(C)(C)C)cccc1C(C)(C)C` [Example 102, Carbamic acid, [[2,6-bis(1,1-dimethylethyl)phenoxy]sulfonyl]-, 2,6-bis(1-methylethyl)phenyl ester], for which the inhibition at 10 µM is 20.6%.

Take `CC(C)c1cccc(C(C)C)c1OC(=O)NS(=O)(=O)Oc1c(F)cccc1F` [Example 103, Carbamic acid, [(2,6-difluorophenoxy)sulfonyl]-, 2,6-bis(1-methylethyl)-phenyl ester]: the inhibition at 10 µM is below 10%.

As to `CCCCCCCCCCCCCCCCOS(=O)(=O)NC(=O)Oc1c(C(C)C)cccc1C(C)C` [Example 107, Carbamic acid, [(hexadecyloxy)sulfonyl]-, 2,6-bis(1-methylethyl)phenyl ester], the inhibition at 10 µM was below 10%.

With `COc1cccc(OC)c1OC(=O)NS(=O)(=O)Oc1c(C(C)C)cccc1C(C)C` [Example 108, Carbamic acid, [[2,6-bis(1-methylethyl)phenoxy]sulfonyl]-, 2,6-dimethoxyphenyl ester], the inhibition at 10 µM is below 10%.

With `CC(C)c1cc([N+](=O)[O-])cc(C(C)C)c1OC(=O)NS(=O)(=O)Oc1c(C(C)C)cccc1C(C)C` [Example 110, Carbamic acid, [[2,6-bis(1-methylethyl)phenoxy]sulfonyl]-, 2,6-bis(1-methylethyl)-4-nitrophenyl ester], the inhibition at 10 µM came to 15.5%.

Take `CC(C)c1cc(Br)cc(C(C)C)c1OC(=O)NS(=O)(=O)Oc1c(C(C)C)cccc1C(C)C` [Example 113, Carbamic acid, [[2,6-bis(1-methylethyl)phenoxy]sulfonyl]-, 4-bromo-2,6-bis(1-methylethyl)phenyl ester]: the inhibition at 10 µM is below 10%.

Regarding `CC(C)c1cccc(C(C)C)c1OS(=O)(=O)NC(=O)Oc1c(-c2ccccc2)cccc1-c1ccccc1` [Example 114, Carbamic acid, [[2,6-bis(1-methylethyl)phenoxy]sulfonyl]-, [1,1′:3′,1″-terphenyl]-2′-yl ester], the inhibition at 10 µM was below 10%.

Turning to `COc1cc(C(C)(C)C)c(OC(=O)NS(=O)(=O)Oc2c(C(C)C)cccc2C(C)C)c(C(C)(C)C)c1` [Example 115, Carbamic acid, [[2,6-bis(1-methylethyl)phenoxy]sulfonyl]-, 2,6-bis(1,1-dimethylethyl)-4-methoxyphenyl ester], the inhibition at 10 µM is 39%.

For the origin of these results see patent US20020183384A1, “Methods of treating nuclear factor-kappa B mediated diseases and disorders” (priority 2001, published 2002).
